Reference: patent US9963464B2, “Macrocyclic compounds” (Bayer Pharma Aktiengesellschaft, priority 2014, dated 2018)

Legend:
[1] = Caco-2 permeation assay; assay type: in vitro ADME; conditions: human, pH 7.2, Caco-2 monolayer, 2 μM test compound; for Papp A→B at 2 h, 2 μM: read-out: Papp A-B (Mari); for Papp B→A at 2 h, 2 μM: read-out: Papp B-A (Mari); for efflux ratio at 2 h, 2 μM: read-out: Efflux ratio (Papp B-A/Papp A-B)
Procedure: 5. Caco-2 Permeation Assay:
Caco-2 cells (purchased from DSMZ Braunschweig, Germany) were seeded at a density of 4.5×10^4 cells per well on 24 well insert plates, 0.4 μm pore size, and grown for 15 days in DMEM medium supplemented with 10% fetal bovine serum, 1% GlutaMAX (100×, GIBCO), 100 U/mL penicillin, 100 μg/mL streptomycin (GIBCO) and 1% non essential amino acids (100×). Cells were maintained at 37° C. in a humidified 5% CO2 atmosphere. Medium was changed every 2-3 day. Before running the permeation assay, the culture medium was replaced by a FCS-free hepes-carbonate transport buffer (pH 7.2). For assessment of monolayer integrity the transepithelial electrical resistance (TEER) was measured. Test compounds were predissolved in DMSO and added either to the apical or basolateral compartment in final concentration of 2 μM in transport buffer. Before and after 2 h incubation at 37° C. samples were taken from both compartments. Analysis of compound content was done after precipitation with methanol by LC/MS/MS analysis. Permeability (Papp) was calculated in the apical to basolateral (A→B) and basolateral to apical (B→A) directions. The apparent permeability was calculated using following equation: Papp=(Vr/Po)(1/S)(P2/t) Where Vr is the volume of medium in the receiver chamber, Po is the measured peak area or height of the test drug in the donor chamber at t=o, S the surface area of the monolayer, P2 is the measured peak area of the test drug in the acceptor chamber after 2 h of incubation, and t is the incubation time. The efflux ratio basolateral (B) to apical (A) was calculated by dividing the Papp B-A by the Papp A-B. In addition the compound recovery was calculated.

[2] = biological target: T1, human PTEFb (CDK9/Cyclin T1) (Homo sapiens, UniProt P50750); experiment: Surface plasmon resonance PTEFb; assay type: binding; conditions: SPR; for koff: read-out: Dissociation rate constant koff; for Target resident time: 1/koff
T1 construct: purchased ProQinase, Freiburg, Germany
From the text: 8. Surface Plasmon Resonance PTEFb
The term “surface plasmon resonance”, as used herein, refers to an optical phenomenon that allows for the analysis of the reversible associations of biological molecules in real time within a biosensor matrix, for example using the Biacore® system (GE Healthcare Biosciences, Uppsala, Sweden). Biacore® uses the optical properties of surface plasmon resonance (SPR) to detect alterations in the refractive index of a buffer, which changes as molecules in solution interact with the target immobilized on the surface. In brief, proteins are covalently bound to the dextran matrix at a known concentration and a ligand for the protein is injected through the dextran matrix. Near infrared light, directed onto the opposite side of the sensor chip surface is reflected and also induces an evanescent wave in the gold film, which in turn, causes an intensity dip in the reflected light at a particular angle known as the resonance angle. If the refractive index of the sensor chip surface is altered (e.g. by compound binding to the bound protein) a shift occurs in the resonance angle. This angle shift can be measured.
The term “KD”, as used herein, is intended to refer to the equilibrium dissociation constant of a particular compound/target protein complex.
The term “koff”, as used herein, is intended to refer to the off-rate, i.e. the dissociation rate constant of a particular compound/target protein complex.
The term “target residence time”, as used herein, is intended to refer to the inverse of the rate of dissociation rate constant (1/koff) of a particular compound/target protein complex.
The ability of the compounds according to the invention to bind human PTEFb may be determined using surface plasmon resonance (SPR). KD values and koff values may be measured using a Biacore® T200 instrument (GE Healthcare, Uppsala, Sweden).
For SPR measurements, recombinant human PTEFb (CDK9/Cyclin T1 recombinant human active protein kinase purchased from ProQinase, Freiburg, Germany) is immobilized using standard amine coupling (Johnsson B et al, Anal Biochem. 1991 Nov. 1; 198(2):268-77). Briefly, carboxymethylated dextran biosensor chips (CM7, GE Healthcare) are activated with N-ethyl-N′-(3-dimethylaminopropyl)-carbodiimide hydrochloride (EDC) and N-hydroxysuccinimide (NHS) according to the supplier's instructions. Human PTEFb is diluted in 1×HBS-EP+(GE Healthcare) into 30 μg/ml and injected on the activated chip surface. Subsequently, a 1:1 solution of 1 M ethanolamine-HCl (GE Healthcare) and 1×HBS-EP is injected to block unreacted groups, resulting in approximately 4000 response units (RU) of immobilized protein. A reference surface is generated by treatment with NHS-EDC and ethanolamine-HCl. Compounds are dissolved in 100% dimethylsulfoxide (DMSO, Sigma-Aldrich, Germany) to a concentration of 10 mM and subsequently diluted in running buffer (1×HBS-EP+pH 7.4 [generated from HBS-EP+Buffer 10× (GE Healthcare): 0.1 M HEPES, 1.5 M NaCl, 30 mM EDTA and 0.5% v/v Surfactant P20], 1% v/v DMSO). For kinetic measurements, four-fold serial dilutions of compound (0.39 nM to 100 nM) are injected over immobilized protein. Binding kinetics is measured at 25° C. with a flow rate of 50 μl/min in running buffer. Compound concentrations are injected for 60 s followed by a dissociation time of 1800 s. The resulting sensorgrams are double-referenced against the reference surface as well as against blank injections.
The double-referenced sensorgrams are fit to a simple reversible Langmuir 1:1 reaction mechanism as implemented in the Biacore® T200 evaluation software 2.0 (GE Healthcare). In cases were full compound dissociation has not occurred at the end of the dissociation phase, the Rmax parameter (response at saturation) is fit as local variable. In all other cases, Rmax is fit as global variable.

[3] = tested on: rat hepatocytes; experiment: In vitro metabolic stability in rat hepatocytes; assay type: in vitro ADME; conditions: 1 μM
Procedure: 6. Investigation of In Vitro Metabolic Stability in Rat Hepatocytes
Hepatocytes from Han Wistar rats were isolated via a 2-step perfusion method. After perfusion, the liver was carefully removed from the rat: the liver capsule was opened and the hepatocytes were gently shaken out into a Petri dish with ice-cold Williams medium E (purchased from Sigma Aldrich Life Science, St Louis, Mo.). The resulting cell suspension was filtered through sterile gaze in 50 ml falcon tubes and centrifuged at 50×g for 3 min at room temperature. The cell pellet was resuspended in 30 ml WME and centrifuged through a Percoll® gradient for 2 times at 100×g. The hepatocytes were washed again with Williams' medium E (WME) and resuspended in medium containing 5% Fetal calf serum (FCS, purchased from Invitrogen, Auckland, NZ). Cell viability was determined by trypan blue exclusion.
For the metabolic stability assay liver cells were distributed in WME containing 5% FCS to glass vials at a density of 1.0×10^6 vital cells/ml. The test compound was added to a final concentration of 1 μM. During incubation, the hepatocyte suspensions were continuously shaken and aliquots were taken at 2, 8, 16, 30, 45 and 90 min, to which equal volumes of cold acetonitrile were immediately added. Samples were frozen at −20° C. over night, after subsequently centrifuged for 15 minutes at 3000 rpm and the supernatant was analyzed with an Agilent 1200 HPLC-system with LCMS/MS detection.
The half-life of a test compound was determined from the concentration-time plot. From the half-life the intrinsic clearances were calculated.

[4] = 25° C., below 5E-5 s^-1 not resolvable

T1 sequence (P50750 whole entry): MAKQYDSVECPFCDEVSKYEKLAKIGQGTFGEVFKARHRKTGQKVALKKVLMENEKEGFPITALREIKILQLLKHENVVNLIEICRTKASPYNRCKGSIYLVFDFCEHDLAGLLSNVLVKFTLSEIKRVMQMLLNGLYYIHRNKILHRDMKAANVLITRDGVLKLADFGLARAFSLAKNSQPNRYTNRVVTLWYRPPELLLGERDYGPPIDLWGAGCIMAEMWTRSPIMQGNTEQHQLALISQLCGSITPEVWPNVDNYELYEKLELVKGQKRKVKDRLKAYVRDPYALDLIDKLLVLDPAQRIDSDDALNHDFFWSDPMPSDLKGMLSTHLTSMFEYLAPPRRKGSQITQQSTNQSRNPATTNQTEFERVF
T1 sequence (O60563 whole entry partner): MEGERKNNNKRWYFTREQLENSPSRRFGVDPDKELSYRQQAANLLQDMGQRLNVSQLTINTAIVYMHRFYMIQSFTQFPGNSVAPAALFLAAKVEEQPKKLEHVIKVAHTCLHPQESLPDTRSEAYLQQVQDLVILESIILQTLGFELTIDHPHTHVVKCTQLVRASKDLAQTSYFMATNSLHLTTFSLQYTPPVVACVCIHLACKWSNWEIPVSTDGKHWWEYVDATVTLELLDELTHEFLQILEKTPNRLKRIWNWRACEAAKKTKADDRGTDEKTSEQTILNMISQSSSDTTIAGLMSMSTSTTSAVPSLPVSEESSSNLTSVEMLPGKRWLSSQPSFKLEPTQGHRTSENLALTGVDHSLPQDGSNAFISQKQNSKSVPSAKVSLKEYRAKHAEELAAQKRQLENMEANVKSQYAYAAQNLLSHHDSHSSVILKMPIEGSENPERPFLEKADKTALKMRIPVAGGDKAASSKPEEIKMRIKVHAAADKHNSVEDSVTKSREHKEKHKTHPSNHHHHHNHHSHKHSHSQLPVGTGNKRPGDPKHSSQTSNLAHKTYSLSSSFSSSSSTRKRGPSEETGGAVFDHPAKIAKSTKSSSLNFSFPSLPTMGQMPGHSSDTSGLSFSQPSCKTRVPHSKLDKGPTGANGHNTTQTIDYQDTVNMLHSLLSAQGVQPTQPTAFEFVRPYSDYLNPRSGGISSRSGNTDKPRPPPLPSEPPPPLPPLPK

CCNC(=O)N=S(C)(=O)Cc1cc2nc(c1)OCCCOc1cc(F)ccc1-c1cc(ncc1F)N2 (racemic) [Example 17, (rac)-1-[{[15,19-difluoro-3,4-dihydro-2H,11H-10,6-(azeno)-12,16-(metheno)-1,5,11,13-benzodioxadiazacyclooctadecin-8-yl]methyl}(methyl)oxido-λ^6-sulfanylidene]-3-ethylurea]
Papp A→B at 2 h, 2 μM [1]: 8.7 ×10⁻⁶ cm/s | Papp B→A at 2 h, 2 μM [1]: 8.8 ×10⁻⁶ cm/s | efflux ratio at 2 h, 2 μM [1]: 1

CS(=O)(=O)Cc1cc2nc(c1)OCCCOc1cc(F)ccc1-c1cc(ncc1F)N2 [Example 8, 15,19-difluoro-8-[(methylsulfonyl)methyl]-3,4-dihydro-2H,11H-10,6-(azeno)-12,16-(metheno)-1,5,11,13-benzodioxadiazacyclooctadecine]
Papp A→B at 2 h, 2 μM [1]: 6.7 ×10⁻⁶ cm/s | Papp B→A at 2 h, 2 μM [1]: 5.5 ×10⁻⁶ cm/s | efflux ratio at 2 h, 2 μM [1]: 0.8 | koff [2, 4]: < 5e-05 s⁻¹ | Target resident time [2]: >333 min

CS(=O)(Cc1cc2nc(c1)OCCCOc1cc(F)ccc1-c1cc(ncc1F)N2)=NC(=O)OCCN (racemic) [Example 25, (rac)-2-aminoethyl [{[15,19-difluoro-3,4-dihydro-2H,11H-10,6-(azeno)-12,16-(metheno)-1,5,11,13-benzodioxadiazacyclooctadecin-8-yl]methyl}(methyl)oxido-λ^6-sulfanylidene]carbamate]
Papp A→B at 2 h, 2 μM [1]: 0.4 ×10⁻⁶ cm/s | Papp B→A at 2 h, 2 μM [1]: 26.2 ×10⁻⁶ cm/s | efflux ratio at 2 h, 2 μM [1]: 74.5

CS(=N)(=O)Cc1cc2cc(c1)OCCCCOc1cc(F)ccc1-c1nc(ncc1F)N2 (racemic) [Example 1, (rac)-16,20-Difluoro-9-[(S-methylsulfonimidoyl)methyl]-2,3,4,5-tetrahydro-12H-13,17-(azeno)-11,7-(metheno)-1,6,12,14-benzodioxadiazacyclononadecine]
Papp A→B at 2 h, 2 μM [1]: 13.9 ×10⁻⁶ cm/s | Papp B→A at 2 h, 2 μM [1]: 19.7 ×10⁻⁶ cm/s | efflux ratio at 2 h, 2 μM [1]: 1.4 | maximal calculated oral bioavailability (Fmax) based on stability data in rat hepatocytes [3]: 69% | koff [2, 4]: < 5e-05 s⁻¹ | Target resident time [2]: >333 min

CS(=N)(=O)Cc1cc2cc(c1)OCCCOc1cc(F)ccc1-c1nc(ncc1F)N2 (racemic) [Example 15, (rac)-15,19-difluoro-8-[(S-methylsulfonimidoyl)methyl]-3,4-dihydro-2H,11H-12,16-(azeno)-10,6-(metheno)-1,5,11,13-benzodioxadiazacyclooctadecine]
maximal calculated oral bioavailability (Fmax) based on stability data in rat hepatocytes [3]: 76% | koff [2, 4]: < 5e-05 s⁻¹ | Target resident time [2]: >333 min

CS(=O)(=O)N=S(C)(=O)Cc1cc2nc(c1)OCCCOc1cc(F)ccc1-c1cc(ncc1F)N2 (racemic) [Example 22, (rac)-N-[{[15,19-difluoro-3,4-dihydro-2H,11H-10,6-(azeno)-12,16-(metheno)-1,5,11,13-benzodioxadiazacyclooctadecin-8-yl]methyl}(methyl)oxido-λ^6-sulfanylidene]methanesulfonamide]
Papp A→B at 2 h, 2 μM [1]: 8.2 ×10⁻⁶ cm/s | Papp B→A at 2 h, 2 μM [1]: 12.6 ×10⁻⁶ cm/s | efflux ratio at 2 h, 2 μM [1]: 1.5

CS(=N)(=O)Cc1cc2nc(c1)OCCCOc1cc(F)ccc1-c1cc(ncc1F)N2 (racemic) [Example 5, (rac)-15,19-Difluoro-8-[(S-methylsulfonimidoyl)methyl]-3,4-dihydro-2H,11H-10,6-(azeno)-12,16-(metheno)-1,5,11,13-benzodioxadiazacyclooctadecine]
Papp A→B at 2 h, 2 μM [1]: 4.7 ×10⁻⁶ cm/s | Papp B→A at 2 h, 2 μM [1]: 4.3 ×10⁻⁶ cm/s | efflux ratio at 2 h, 2 μM [1]: 0.91 | maximal calculated oral bioavailability (Fmax) based on stability data in rat hepatocytes [3]: 62% | koff [2, 4]: 9.3e-05 s⁻¹ | Target resident time [2]: 179.2 min

NCCS(=O)(=O)Cc1cc2nc(c1)OCCCOc1cc(F)ccc1-c1cc(ncc1F)N2 [Example 26, 2-({[15,19-difluoro-3,4-dihydro-2H,11H-10,6-(azeno)-12,16-(metheno)-1,5,11,13-benzodioxadiazacyclooctadecin-8-yl]methyl}sulfonyl)ethanamine]
Papp A→B at 2 h, 2 μM [1]: 1.2 ×10⁻⁶ cm/s | Papp B→A at 2 h, 2 μM [1]: 7.6 ×10⁻⁶ cm/s | efflux ratio at 2 h, 2 μM [1]: 6.5

CS(=O)(Cc1cc2nc(c1)OCCCOc1cc(F)ccc1-c1cc(ncc1F)N2)=NS(=O)(=O)CCN (racemic) [Example 23, (rac)-2-amino-N-[{[15,19-difluoro-3,4-dihydro-2H,11H-10,6-(azeno)-12,16-(metheno)-1,5,11,13-benzodioxadiazacyclooctadecin-8-yl]methyl}(methyl)oxido-λ^6-sulfanylidene]ethanesulfonamide]
Papp A→B at 2 h, 2 μM [1]: 0.6 ×10⁻⁶ cm/s | Papp B→A at 2 h, 2 μM [1]: 44.2 ×10⁻⁶ cm/s | efflux ratio at 2 h, 2 μM [1]: 69.7

CS(=N)(=O)Cc1cc2nc(c1)OCCCOc1cc(F)ccc1-c1cc(ncc1F)N2 (single isomer, unassigned; enantiomer 2) [Example 7, 15,19-Difluoro-8-[(S-methylsulfonimidoyl)methyl]-3,4-dihydro-2H,11H-10,6-(azeno)-12,16-(metheno)-1,5,11,13-benzodioxadiazacyclooctadecine; Enantiomer 2]
Dissociation rate constant koff [2, 4]: < 5e-05 s⁻¹ | Target resident time [2]: >333 min
